Data from the CheMixHub viscosity set.
“And” between values parts separate entries of the source, which are not always exact repeats. Equal entries are not always repeated.

Assay: xn = mol fraction of the nth substance listed

CCCCn1cc[n+](C)c1.O=S(=O)([O-])C(F)(F)F + O
101 kPa
Details	viscosity [mPa·s]
308.15 K, x2 = 0.3999	19.95
323.15 K, x2 = 0.901	3.005

CCOCCn1cc[n+](C)c1.C[C@@H](O)[C@H](N)C(=O)[O-] + O
Details	viscosity [mPa·s]
298.15 K, 100 kPa, x2 = 0.492	991.4

CC[C@H](C)[C@H](N)C(=O)O + O
viscosity, 101 kPa
Details	293.15 K	298.15 K	303.15 K	308.15 K	313.15 K	318.15 K
x1 = 0.00045	1.008 mPa·s	0.896 mPa·s and 0.896 mPa·s	0.8028 mPa·s and 0.8027 mPa·s	0.7244 mPa·s and 0.7243 mPa·s	0.6578 mPa·s and 0.6577 mPa·s	0.6022 mPa·s and 0.602 mPa·s
x1 = 0.0009	1.019 mPa·s	0.9057 mPa·s and 0.9059 mPa·s	0.8118 mPa·s and 0.8118 mPa·s	0.733 mPa·s and 0.7328 mPa·s	0.6658 mPa·s and 0.6657 mPa·s	0.6098 mPa·s and 0.6096 mPa·s
x1 = 0.00135	1.03 mPa·s	0.9164 mPa·s and 0.9165 mPa·s	0.8217 mPa·s and 0.8217 mPa·s	0.7422 mPa·s and 0.742 mPa·s	0.6745 mPa·s and 0.6744 mPa·s	0.6181 mPa·s and 0.6178 mPa·s
x1 = 0.0018	1.042 mPa·s	0.9273 mPa·s and 0.9275 mPa·s	0.8319 mPa·s and 0.8318 mPa·s	0.7516 mPa·s and 0.7515 mPa·s	0.6834 mPa·s and 0.6832 mPa·s	0.6265 mPa·s and 0.6261 mPa·s
x1 = 0.002245	1.054 mPa·s	0.9386 mPa·s and 0.9387 mPa·s	0.8423 mPa·s and 0.8422 mPa·s	0.7613 mPa·s and 0.7612 mPa·s	0.6925 mPa·s and 0.6923 mPa·s	0.6351 mPa·s and 0.6347 mPa·s
x1 = 0.002695	1.067 mPa·s	0.9502 mPa·s and 0.9502 mPa·s	0.8531 mPa·s and 0.853 mPa·s	0.7714 mPa·s and 0.7713 mPa·s	0.702 mPa·s and 0.7018 mPa·s	0.6438 mPa·s and 0.6434 mPa·s

CNC(N)=O + O
viscosity [mPa·s], 101 kPa
Details	x1 = 9.02e-05	x1 = 0.00018	x1 = 0.00027	x1 = 0.00036	x1 = 0.0005402	x1 = 0.00108	x1 = 0.001799	x1 = 0.004484
293.15 K	1.003	1.01	1.002	1.007	1.008	1.017	1.013	1.036
298.15 K	0.8881	0.8936	0.8933	0.8922	0.8992	0.9009	0.8963	0.9188
303.15 K	–	0.7986	0.7953	0.798	0.8003	0.8032	0.8075	0.8214

O=C(O)C(O)C(O)C(=O)O (configuration not stated) + O
viscosity, 100 kPa
Details	298.15 K	303.15 K	308.15 K	313.15 K	318.15 K
x1 = 0.003486	0.9322 mPa·s and 0.9322 mPa·s	0.8367 mPa·s and 0.8367 mPa·s	0.7533 mPa·s and 0.7533 mPa·s	0.6829 mPa·s and 0.6829 mPa·s	0.6209 mPa·s and 0.6209 mPa·s
x1 = 0.006751	0.9765 mPa·s and 0.9765 mPa·s	0.8735 mPa·s and 0.8735 mPa·s	0.7864 mPa·s and 0.7864 mPa·s	0.7098 mPa·s and 0.7098 mPa·s	0.6435 mPa·s and 0.6435 mPa·s
x1 = 0.009818	1.038 mPa·s and 1.038 mPa·s	0.9206 mPa·s and 0.9206 mPa·s	0.8235 mPa·s and 0.8235 mPa·s	0.7408 mPa·s and 0.7408 mPa·s	0.6707 mPa·s and 0.6707 mPa·s
x1 = 0.0127	1.088 mPa·s and 1.088 mPa·s	0.9696 mPa·s and 0.9696 mPa·s	0.8645 mPa·s and 0.8645 mPa·s	0.7756 mPa·s and 0.7756 mPa·s	0.6996 mPa·s and 0.6996 mPa·s

O=C([O-])[O-].[K+].[K+] + O
viscosity [mPa·s], 101 kPa
Details	303.15 K	308.15 K	313.15 K
x1 = 0.002	0.839	0.769	0.703
x1 = 0.005	0.889	0.814	0.745
x1 = 0.009	0.944	0.864	0.793

O=S(=O)([O-])[O-].[Ca+2] + O
100 kPa
Details	viscosity [mPa·s]
303.15 K, x1 = 0.000281	0.7976
323.15 K, x1 = 0.000279	0.557

O=[N+]([O-])[O-].O=[N+]([O-])[O-].O=[N+]([O-])[O-].[Ce+3] + O
viscosity [mPa·s], 101.3 kPa
Details	x1 = 0.009125	x1 = 0.01824	x1 = 0.02724	x1 = 0.03472	x1 = 0.05339	x1 = 0.06671	x1 = 0.0744
293.15 K	1.312	1.718	2.423	3.281	6.899	13.02	19.48
298.15 K	1.174	1.529	2.169	2.911	5.937	10.99	16.06
308.15 K	0.9509	1.249	1.734	2.299	4.599	8.055	11.34

O=[N+]([O-])[O-].O=[N+]([O-])[O-].[Mg+2] + O
viscosity [mPa·s], 100 kPa
Details	x1 = 0.01	x1 = 0.03	x1 = 0.05	x1 = 0.07
298.15 K	1.138	1.6	2.409	4.609
323.15 K	0.707	0.9853	1.479	2.709
